Patent publication US20190085289A1, “COMPOSITIONS AND METHODS FOR PATHOGEN INACTIVATION OF PLATELETS” (Cerus Corporation, priority 2017, published 2019)

Legend:
[1] = Stability of S-59 in InterSol PAS under ambient light (HPLC); format: physicochemical; settings: for S-59 UV peak area (HPLC) / S-59 concentration (HPLC): 230 μM in InterSol PAS, room temp
Protocol: Initial studies evaluated stability of the pathogen inactivation compound amotosalen (S-59) that was formulated in a platelet additive solution (PAS). A 230 μM solution of psoralen compound S-59 (Irsch et al., Transfus Med Hemother, 38: 19-31 (2011)) was prepared in the commercially available PAS solution InterSol® (Fenwal Inc.) and maintained at room temperature under ambient light conditions. HPLC analysis was performed on samples at times listed in Table 1 for both S-59 and photoproducts. […] S-59 data are shown as both concentration (μM), as well as peak area (S-59 UV) for relative comparison to any photoproducts detected with HPLC (Table 1). Peak D and Peak E photoproducts also were observed by 22 hr and 72 hr, respectively, as well as process impurity decomposition product 4′-HMT, with peak area values indicated (Table 1).

K. pneumoniae = experiment: Photochemical inactivation of K. pneumoniae in platelets, bacterial titer assay; format: cell-based
Protocol: Another study evaluated 24 hour stability and photoconversion of amotosalen (S-59) in PAS with plasma and platelets, in the presence of bacteria. Two ABO matched platelet units in 100% plasma were pooled, split into two units and InterSol® PAS added (e.g., 65/35). S-59 was added to the test unit at a concentration of 150 but not initially to the control unit. A log culture of K. pneumoniae (˜8 log cfu/mL) was added to the units at a target of ˜60 CFU/unit and the units were incubated in a platelets shaker at 22° C. for approximately 24 hours. At the end of incubation, S-59 was also added to the control unit at the same concentration and both control and test units were subjected to UVA light. Samples were taken pre- and post-UVA illumination for both units bacterial titer assay and HPLC. Post-illumination both units were subjected to a CAD processing step to remove residual amotosalen and photoproducts and stored on a platelet shaker for 7 days to confirm no growth of bacteria. Photochemical inactivation of K. pneumoniae was also measured post-UVA exposure, with the titer (log cfu/mL) results shown in the following table.

FCV = FCV inactivation with decreasing amounts of S-59 after pre-incubation, plaque assay; format: cell-based, feline calicivirus (FCV); settings: for FCV titer after UVA: UVA ~3 J/cm^2; for FCV log inactivation: vs 0 hr control titer 5.84
Protocol: An additional study was performed to evaluate the level of FCV inactivation with decreasing amounts of S-59 after extended incubation (e.g., pre-incubation) in PAS/Plasma. In this study, platelets in PAS/Plasma (65%/35%) were spiked with a stock of FCV at a 1:100 dilution. The FCV-spiked platelets were then split into 16 separate test units. Each unit was dosed with S-59 at approximately 150 μM, 90 μM, 30 μM or 15 μM concentration. Following the addition of S-59 in one of four dosing groups, the platelet units in each dosing group were incubated for 0, 4, 8 or 24 hr prior to illumination. A control sample was taken from each unit for virus titer determination and HPLC analysis of S-59 concentration pre-UVA treatment, followed by UVA light exposure at ˜3 J/cm^2 for photochemical treatment of the test samples. Following UVA treatment, the control and test samples were evaluated for inactivation of FCV using a standard virological plaque assay. […] Control titer at 0 hr pool used for all log inactivation calculations (5.84 log/mL).

[2] = tested on: Caliciviruses, such as feline calicivirus (FCV); settings: photochemical inactivation, Irsch et al. 2011; cited from earlier work
[3] = Control unit (S-59 added after ~24 h incubation, then UVA), Replicate 1
[4] = Control unit (S-59 added after ~24 h incubation, then UVA), Replicate 2
[5] = Test unit (S-59 150 present during ~24 h incubation, then UVA), Replicate 1
[6] = Test unit (S-59 150 present during ~24 h incubation, then UVA), Replicate 2
[7] = S-59 15 μM, pre-incubation 0 hr
[8] = S-59 15 μM, pre-incubation 4 hr
[9] = S-59 15 μM, pre-incubation 8 hr
[10] = S-59 15 μM, pre-incubation 24 hr
[11] = S-59 30 μM, pre-incubation 0 hr
[12] = S-59 30 μM, pre-incubation 4 hr
[13] = S-59 30 μM, pre-incubation 8 hr
[14] = S-59 30 μM, pre-incubation 24 hr
[15] = S-59 90 μM, pre-incubation 0 hr
[16] = S-59 90 μM, pre-incubation 4 hr
[17] = S-59 90 μM, pre-incubation 8 hr
[18] = S-59 90 μM, pre-incubation 24 hr
[19] = S-59 150 μM, pre-incubation 0 hr
[20] = S-59 150 μM, pre-incubation 4 hr
[21] = S-59 150 μM, pre-incubation 8 hr
[22] = S-59 150 μM, pre-incubation 24 hr

With `Cc1oc2c(C)c3oc(=O)cc(C)c3cc2c1COCCN` [S-59, 3-(2-aminoethoxymethyl)-2,5,9-trimethylfuro[3,2-g]chromen-7-one] the “S-59 UV peak area (HPLC)” value ([1]; 5 hr) was 3593.309, the “S-59 concentration (HPLC)” value ([1]; 5 hr) was 230.62 µM and the “S-59 UV peak area (HPLC)” value ([1]; 6 hr) was 3575.825. The “S-59 concentration (HPLC)” value ([1]; 6 hr) was 229.50 µM, the “S-59 UV peak area (HPLC)” value ([1]; 22 hr) was 3485.467 and the “S-59 concentration (HPLC)” value ([1]; 22 hr) was 223.71 µM. The “S-59 UV peak area (HPLC)” value ([1]; 30 hr) was 3529.854, the “S-59 concentration (HPLC)” value ([1]; 30 hr) was 226.56 µM and the “S-59 UV peak area (HPLC)” value ([1]; 47 hr) was 3486.293. The “S-59 concentration (HPLC)” value ([1]; 47 hr) was 223.76 µM, the “S-59 UV peak area (HPLC)” value ([1]; 56 hr) was 3440.455 and the “S-59 concentration (HPLC)” value ([1]; 56 hr) was 220.82 µM. The “S-59 UV peak area (HPLC)” value ([1]; 72 hr) was 3534.894, the “S-59 concentration (HPLC)” value ([1]; 72 hr) was 226.88 µM and the “S-59 UV peak area (HPLC)” value ([1]; 78 hr) was 3485.093. The “S-59 concentration (HPLC)” value ([1]; 78 hr) was 223.69 µM, the “S-59 UV peak area (HPLC)” value ([1]; T 0) was 3700.439 and the “S-59 concentration (HPLC)” value ([1]; T 0) was 237.49 µM. The “loss of S-59” value ([1]; InterSol PAS, at 78 hours) was less than 6%, the “K. pneumoniae Log Reduction” value (K. pneumoniae; [3]) was greater than 7.3 Log and the “K. pneumoniae Titer Post-UVA” value (K. pneumoniae; [3]) was less than −0.7 log cfu/mL. The “K. pneumoniae Log Reduction” value (K. pneumoniae; [4]) was greater than 6.3 Log, the “K. pneumoniae Titer Post-UVA” value (K. pneumoniae; [4]) was less than −0.7 log cfu/mL and the “K. pneumoniae Log Reduction” value (K. pneumoniae; [5]) was greater than 7.3 Log. The “K. pneumoniae Titer Post-UVA” value (K. pneumoniae; [5]) was less than −0.7 log cfu/mL, the “K. pneumoniae Log Reduction” value (K. pneumoniae; [6]) was greater than 6.2 Log and the “K. pneumoniae Titer Post-UVA” value (K. pneumoniae; [6]) was less than −0.7 log cfu/mL. The “photochemical inactivation of K. pneumoniae” value (K. pneumoniae; post-UVA, both the control and test units) was “High level inactivation”, the “FCV titer after UVA” value (FCV; [7]) was 5.65 log PFU/mL and the FCV log inactivation (FCV; [7]) was 0.19 log/mL. The “FCV titer after UVA” value (FCV; [8]) was 4.49 log PFU/mL, the FCV log inactivation (FCV; [8]) was 1.35 log/mL and the “FCV titer after UVA” value (FCV; [9]) was 2.22 log PFU/mL. For the same molecule, the FCV log inactivation (FCV; [9]) was 3.62 log/mL, the “FCV titer after UVA” value (FCV; [10]) was 0.52 log PFU/mL and the FCV log inactivation (FCV; [10]) was 5.32 log/mL. For the same molecule, the “FCV titer after UVA” value (FCV; [11]) was 4.91 log PFU/mL, the FCV log inactivation (FCV; [11]) was 0.93 log/mL and the “FCV titer after UVA” value (FCV; [12]) was 2.00 log PFU/mL. The FCV log inactivation (FCV; [12]) was 3.84 log/mL, the “FCV titer after UVA” value (FCV; [13]) was less than 1.22 log PFU/mL and the FCV log inactivation (FCV; [13]) was 4.62 log/mL. For the same molecule, the “FCV titer after UVA” value (FCV; [14]) was less than −0.22 log PFU/mL, the FCV log inactivation (FCV; [14]) was 5.62 log/mL and the “FCV titer after UVA” value (FCV; [15]) was 4.90 log PFU/mL. The FCV log inactivation (FCV; [15]) was 0.94 log/mL, the “FCV titer after UVA” value (FCV; [16]) was less than 0.22 log PFU/mL and the FCV log inactivation (FCV; [16]) was 5.62 log/mL. For the same molecule, the “FCV titer after UVA” value (FCV; [17]) was less than −0.48 log PFU/mL, the FCV log inactivation (FCV; [17]) was 5.84 log/mL and the “FCV titer after UVA” value (FCV; [18]) was less than −0.30 log PFU/mL. The FCV log inactivation (FCV; [18]) was 5.84 log/mL, the “FCV titer after UVA” value (FCV; [19]) was 4.33 log PFU/mL and the FCV log inactivation (FCV; [19]) was 1.51 log/mL. The “FCV titer after UVA” value (FCV; [20]) was less than 0.22 log PFU/mL, the FCV log inactivation (FCV; [20]) was 5.62 log/mL and the “FCV titer after UVA” value (FCV; [21]) was less than −0.48 log PFU/mL. The FCV log inactivation (FCV; [21]) was 5.84 log/mL, the “FCV titer after UVA” value (FCV; [22]) was less than −0.48 log PFU/mL and the FCV log inactivation (FCV; [22]) was 5.84 log/mL. For the same molecule, the FCV inactivation (FCV; pre-incubation 4, 8 or 24 hours at 150 μM and 90 μM, 8 or 24 hours at 30 μM, 24 hours at 15 μM) was “greater than 4 logs”, the FCV inactivation (FCV; pre-incubation 4 hr, 30 μM S-59) was roughly 4 logs and the FCV inactivation (FCV; pre-incubation 8 hr, 15 μM S-59) was “greater than 3.5 logs”. For the same molecule, the “log10 reduction in titer” value [2] was 1.7-2.4 log10.
